# Data: US8604217B2, “Compound, a process for its preparation, a pharmaceutical composition, use of a compound, a method for modulating or regulating serine/threonine kinases and a serine/threonine kinases modulating agent” (Selvita S.A., priority 2009, dated 2013)
# Experiments:
# [1] = tested on: human erytroblast leukemia HEL-92.1.7 cells; assay: Growth inhibition test (MTS) on HEL-92.1.7 cells; type: cell-based; details: 72 hours, read-out: HEL92 ED50
# Protocol: Ten thousand cells of human erytroblast leukemia HEL-92.1.7 were inoculated into each well of a 96-well microplate (manufactured by Corning Corp.) using RPMI 1640 medium (culture medium) containing 10% fetal calf serum (FCS). Next day, a dimethyl sulfoxide (DMSO) solution of each test compound prepared in a concentration of 10 mmol/L was further diluted with culture medium to the desired concentrations (0.1, 0.5, 1, 2.5, 5 and 10 micromol/L), and the diluted solution was added to each well. The individual wells were further cultured in 5% carbon dioxide at 37° C. for 72 hours. After completion of the culture, 10 μl MTS (3-(4,5-Dimethyl-2-thiazolyl)-5-(carboxymethoxyphenyl)-2-(4-sulfophenyl)-2H-tetrazolium, inner salt assay (CellTiter96® AQueous One Solution Cell Proliferation Assay, Promega) was added to each well, and culturing was performed in 5% carbon dioxide at 37° C. for 2 hours. Using a microplate spectrophotometer (Synergy 2 multi-mode microplate reader (BioTek)), the absorbance of each well was measured at 490 nm. The value for cells not incorporated with a test compound was designated as 100%. By comparing these values with the absorbance difference obtained at the well in which each test compound was added, the cell viability (% viability) after treatment with the test compound was calculated.
# [2] = tested on: human breast adenocarcinoma MCF7 cells; assay: Growth inhibition test (MTS) on MCF7 cells; type: cell-based; details: Homo sapiens, MCF7, 72 hours, read-out: MCF-7 ED50
# Outline: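 MCF7 cells seeded in DMEM with 10% FCS, dosed next day at 0.1–10 micromol/L (diluted from 10 mmol/L DMSO stock) and cultured 72 h at 37° C, 5% CO2. MTS added for 2 h, absorbance read at 490 nm; % viability calculated relative to untreated cells as 100%.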
# [3] = tested on: human acute lymphocytic leukemia E6.1 Jurkat cells; assay: Growth inhibition test (MTS) on E6.1 Jurkat cells; type: cell-based; details: 72 hours, read-out: Jurkat ED50
# [4] = molecular target: PIM-1 (Homo sapiens (Human), UniProt P11309); assay: Luminometric kinase assay for PIM1 kinase (Kinase-Glo); type: biochemical; details: 1 μM ATP, 25 min at RT
# Outline: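 Kinase and substrate reacted in 8 mM MOPS/NaOH pH7.0, 0.2 mM EDTA, 2 mM MgCl2 with 1 μM ATP for 25 min at RT, compounds serially diluted from 1 μM. Remaining ATP read by Kinase-Glo luminescence; IC50 from variable-slope sigmoidal fit.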
# [5] = Solubility in phosphate buffer pH 7.4; type: physicochemical; details: aqueous buffer, kinetic from dmso stock, pH 7.4, 24 hours at 37° C., 1% DMSO
# Source text: In general, tetrahalogenated benzimidazoles are poorly soluble compounds, what renders their chances for successful therapeutic administration in commonly used routes of administration and standard conditions. In contrast to previously published tetrabromobenzimidazoles exemplified by DMAT, certain compounds provided in the application show a markedly increase in water solubility. As solubility is one of the key parameters that influences compound pharmacokinetics, permeability and therefore also activity in vitro and in vivo, improved solubility of the selected compounds is a surprising feature that can lead to improved efficacy in treating PIM kinase associated disease conditions.
# [6] = tested on: tumors derived from MV4-11 cells xenografted in nude mice; assay: In vivo anticancer activity, MV4-11 xenograft; details: QD, PO; for TGI (%): 150 mg/kg, 21 days, MV4-11 xenograft in nude mice; for tumor growth inhibition (in words): after 21 days of treatment
# Protocol: The anticancer activity of compounds 20, 359 and 416 was assessed on tumors derived from MV4-11 cells xenografted in nude mice. Mice were inoculated with 5*10^6 cells and the tumor volume was measured until it reached 100 mm^3. Throughout the whole study tumor volume has been measured (FIG. 2) and tumor growth inhibition (TGI) was calculated.
# [7] = molecular target: EphA2(h) (Homo sapiens (Human), UniProt P29317); assay: KinaseProfiler kinase panel; type: biochemical
# [8] = molecular target: Tie2 (h) (Homo sapiens (Human), UniProt Q02763); assay: KinaseProfiler kinase panel; type: biochemical
# [9] = molecular target: Rsk1(r) (Rattus norvegicus (Rat), UniProt Q63531); assay: KinaseProfiler kinase panel; type: biochemical
# [10] = molecular target: Itk(h) (Homo sapiens (Human), UniProt Q08881); assay: KinaseProfiler kinase panel; type: biochemical
# Sequence of Itk(h) (Q08881 whole entry): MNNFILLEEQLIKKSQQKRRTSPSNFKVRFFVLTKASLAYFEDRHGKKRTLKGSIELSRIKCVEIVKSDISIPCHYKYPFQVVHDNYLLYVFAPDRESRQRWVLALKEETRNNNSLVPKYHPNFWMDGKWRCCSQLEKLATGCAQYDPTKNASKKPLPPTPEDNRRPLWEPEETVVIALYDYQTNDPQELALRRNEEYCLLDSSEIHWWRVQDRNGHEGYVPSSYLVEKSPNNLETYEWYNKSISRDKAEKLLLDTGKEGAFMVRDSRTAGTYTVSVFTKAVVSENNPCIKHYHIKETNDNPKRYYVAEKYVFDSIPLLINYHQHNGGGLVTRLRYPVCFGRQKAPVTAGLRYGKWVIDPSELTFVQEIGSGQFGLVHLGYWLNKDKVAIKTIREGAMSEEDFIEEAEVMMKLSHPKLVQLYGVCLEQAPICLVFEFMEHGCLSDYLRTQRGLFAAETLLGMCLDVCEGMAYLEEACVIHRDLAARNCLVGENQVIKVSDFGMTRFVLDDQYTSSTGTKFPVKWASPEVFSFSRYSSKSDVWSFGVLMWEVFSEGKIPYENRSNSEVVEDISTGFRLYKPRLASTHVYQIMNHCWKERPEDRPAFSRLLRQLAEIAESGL
# Sequence of PIM-1 (P11309 whole entry): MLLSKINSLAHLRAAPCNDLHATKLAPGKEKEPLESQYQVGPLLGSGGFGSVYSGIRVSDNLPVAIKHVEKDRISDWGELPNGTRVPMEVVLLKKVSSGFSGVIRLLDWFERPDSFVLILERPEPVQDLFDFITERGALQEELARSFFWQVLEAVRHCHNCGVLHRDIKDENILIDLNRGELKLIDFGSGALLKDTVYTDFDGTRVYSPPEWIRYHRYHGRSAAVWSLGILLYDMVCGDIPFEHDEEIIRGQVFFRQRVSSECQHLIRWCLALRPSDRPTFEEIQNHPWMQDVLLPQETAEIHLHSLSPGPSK
# Sequence of EphA2(h) (P29317 24-976): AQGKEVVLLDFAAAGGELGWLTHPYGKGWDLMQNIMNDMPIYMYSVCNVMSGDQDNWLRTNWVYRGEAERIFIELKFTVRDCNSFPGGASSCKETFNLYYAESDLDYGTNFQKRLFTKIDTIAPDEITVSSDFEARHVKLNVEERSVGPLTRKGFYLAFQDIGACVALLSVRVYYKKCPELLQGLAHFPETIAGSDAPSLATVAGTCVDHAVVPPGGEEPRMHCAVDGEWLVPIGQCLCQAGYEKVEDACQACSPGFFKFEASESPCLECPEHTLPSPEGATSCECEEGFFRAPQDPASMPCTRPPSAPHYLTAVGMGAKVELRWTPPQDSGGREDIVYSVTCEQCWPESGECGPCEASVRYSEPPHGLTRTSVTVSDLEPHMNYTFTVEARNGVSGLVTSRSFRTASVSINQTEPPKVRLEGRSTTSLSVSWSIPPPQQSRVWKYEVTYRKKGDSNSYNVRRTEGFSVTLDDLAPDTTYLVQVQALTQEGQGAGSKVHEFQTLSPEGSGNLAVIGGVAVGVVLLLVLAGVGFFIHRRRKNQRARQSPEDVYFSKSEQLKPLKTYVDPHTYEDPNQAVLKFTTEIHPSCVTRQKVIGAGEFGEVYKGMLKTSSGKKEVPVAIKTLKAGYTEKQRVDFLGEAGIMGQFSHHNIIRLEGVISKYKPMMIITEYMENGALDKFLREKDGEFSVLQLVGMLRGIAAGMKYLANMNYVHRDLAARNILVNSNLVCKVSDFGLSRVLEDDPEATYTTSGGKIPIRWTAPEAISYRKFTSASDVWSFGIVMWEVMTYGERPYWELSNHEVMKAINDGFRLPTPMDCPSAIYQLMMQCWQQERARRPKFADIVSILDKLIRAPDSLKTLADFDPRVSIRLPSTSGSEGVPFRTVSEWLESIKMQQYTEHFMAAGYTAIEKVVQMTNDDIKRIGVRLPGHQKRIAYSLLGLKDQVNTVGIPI
# Sequence of Tie2 (h) (Q02763 23-1124): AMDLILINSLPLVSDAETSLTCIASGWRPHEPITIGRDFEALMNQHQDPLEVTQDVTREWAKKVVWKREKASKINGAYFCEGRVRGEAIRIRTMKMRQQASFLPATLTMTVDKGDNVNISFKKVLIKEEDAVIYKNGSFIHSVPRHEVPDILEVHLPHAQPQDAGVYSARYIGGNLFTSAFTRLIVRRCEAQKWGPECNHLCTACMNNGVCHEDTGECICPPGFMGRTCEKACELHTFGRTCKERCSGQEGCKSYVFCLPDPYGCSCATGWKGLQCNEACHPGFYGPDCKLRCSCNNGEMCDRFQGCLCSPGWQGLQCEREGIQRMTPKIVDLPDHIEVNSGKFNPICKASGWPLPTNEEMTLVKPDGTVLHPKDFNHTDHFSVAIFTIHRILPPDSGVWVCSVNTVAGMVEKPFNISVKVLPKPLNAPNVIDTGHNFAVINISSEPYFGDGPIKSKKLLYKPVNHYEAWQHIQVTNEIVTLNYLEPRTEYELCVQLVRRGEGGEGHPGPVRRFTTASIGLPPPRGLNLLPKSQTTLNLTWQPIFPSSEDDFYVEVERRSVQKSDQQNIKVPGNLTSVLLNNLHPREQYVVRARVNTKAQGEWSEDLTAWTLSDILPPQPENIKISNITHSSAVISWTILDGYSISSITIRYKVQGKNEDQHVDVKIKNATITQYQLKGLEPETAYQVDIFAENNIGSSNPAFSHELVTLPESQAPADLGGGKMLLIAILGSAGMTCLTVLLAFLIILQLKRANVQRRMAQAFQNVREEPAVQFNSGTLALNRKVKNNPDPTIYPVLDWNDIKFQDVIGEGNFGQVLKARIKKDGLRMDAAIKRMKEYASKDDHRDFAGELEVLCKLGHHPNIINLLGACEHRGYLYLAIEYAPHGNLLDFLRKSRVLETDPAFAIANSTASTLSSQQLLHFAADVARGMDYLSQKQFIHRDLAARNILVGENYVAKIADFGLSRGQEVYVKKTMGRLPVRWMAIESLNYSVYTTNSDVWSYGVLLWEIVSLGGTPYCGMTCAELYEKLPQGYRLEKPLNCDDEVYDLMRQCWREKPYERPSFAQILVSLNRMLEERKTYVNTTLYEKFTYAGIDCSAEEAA
# Sequence of Rsk1(r) (Q63531 whole entry): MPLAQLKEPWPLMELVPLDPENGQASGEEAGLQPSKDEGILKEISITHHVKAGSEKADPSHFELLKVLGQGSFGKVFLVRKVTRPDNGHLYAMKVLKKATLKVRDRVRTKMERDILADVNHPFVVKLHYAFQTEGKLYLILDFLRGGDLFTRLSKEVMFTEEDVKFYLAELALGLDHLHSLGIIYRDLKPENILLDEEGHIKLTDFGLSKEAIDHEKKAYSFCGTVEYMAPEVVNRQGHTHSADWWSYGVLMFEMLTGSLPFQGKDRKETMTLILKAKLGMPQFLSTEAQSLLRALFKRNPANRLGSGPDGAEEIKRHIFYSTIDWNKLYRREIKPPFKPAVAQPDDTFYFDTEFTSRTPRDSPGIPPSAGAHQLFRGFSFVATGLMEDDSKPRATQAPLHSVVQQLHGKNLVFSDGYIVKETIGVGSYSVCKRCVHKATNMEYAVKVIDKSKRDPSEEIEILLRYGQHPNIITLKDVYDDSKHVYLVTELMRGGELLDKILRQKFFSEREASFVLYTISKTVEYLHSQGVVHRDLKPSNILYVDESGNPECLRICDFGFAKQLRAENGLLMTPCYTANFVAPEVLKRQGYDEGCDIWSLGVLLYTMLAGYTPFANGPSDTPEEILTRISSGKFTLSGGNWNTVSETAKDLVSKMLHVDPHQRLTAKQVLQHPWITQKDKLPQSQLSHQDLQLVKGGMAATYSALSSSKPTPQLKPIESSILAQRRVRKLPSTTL
SMILES,IC50 [1] [µM],IC50 [2] [µM],IC50 [4] [µM],other results
"NCCCNc1nc2c(Br)c(Br)c(Br)c(Br)c2[nH]1 [Compound 11, N-(3-aminopropyl)-4,5,6,7-tetrabromo-1H-benzo[d]imidazol-2-amine]",5.7,4.7,0.00589,IC50 [3]: 3.46 µM
"Brc1c(Br)c(Br)c2[nH]c(N3CCNCC3)nc2c1Br [Compound 20, 4,5,6,7-tetrabromo-2-(piperazin-1-yl)-1H-benzo[d]imidazole]",6.04,2.47,0.0169,solubility at 24 h [5]: 81 µM; TGI (%) [6]: −57.8%; tumor growth inhibition (in words) [6]: most pronounced tumor growth inhibition
"NC1CCC(Nc2nc3c(Br)c(Br)c(Br)c(Br)c3[nH]2)CC1 (stereo not drawn) [Compound 87, N1-(4,5,6,7-tetrabromo-1H-benzo[d]imidazol-2-yl)cyclohexane-1,4-diamine]",9.07,5.62,0.0151,IC50 [3]: 5.81 µM
"NC1CCCC(Nc2nc3c(Br)c(Br)c(Br)c(Br)c3[nH]2)C1 (stereo not drawn) [Compound 336, N1-(4,5,6,7-tetrabromo-1H-benzo[d]imidazol-2-yl)cyclohexane-1,3-diamine]",,6.2,0.0188,
"Brc1c(Br)c(Br)c2[nH]c(N[C@H]3COC[C@@H]3N3CCCC3)nc2c1Br [Compound 337, 4,5,6,7-tetrabromo-N-((3R,4R)-tetrahydro-4-(pyrrolidin-1-yl)furan-3-yl)-1H-benzo[d]imidazol-2-amine]",4.5,1.78,0.0256,
"Brc1c(Br)c(Br)c2[nH]c(N[C@H]3COC[C@@H]3N3CCCCC3)nc2c1Br [Compound 338, 4,5,6,7-tetrabromo-N-((3R,4R)-tetrahydro-4-(piperidin-1-yl)furan-3-yl)-1H-benzo[d]imidazol-2-amine]",5.68,2.5,0.0217,
"NCc1ccccc1CNc1nc2c(Br)c(Br)c(Br)c(Br)c2[nH]1 [Compound 349, N-(2-(aminomethyl)benzyl)-4,5,6,7-tetrabromo-1H-benzo[d]imidazol-2-amine]",6,2.75,0.0698,
"CN1CCCC(Nc2nc3c(Br)c(Br)c(Br)c(Br)c3[nH]2)CC1 (stereo not drawn) [Compound 358, 4,5,6,7-tetrabromo-N-(1-methylazepan-4-yl)-1H-benzo[d]imidazol-2-amine]",7.65,3.03,0.00582,
"CC(C)n1c(N2CCNCC2)nc2c(Br)c(Br)c(Br)c(Br)c21 [Compound 359, 4,5,6,7-tetrabromo-1-isopropyl-2-(piperazin-1-yl)-1H-benzo[d]imidazole]",3.85,1.6,0.00684,TGI (%) [6]: −84.7%; tumor growth inhibition (in words) [6]: most pronounced tumor growth inhibition
"C[C@@H]1CN(c2nc3c(Br)c(Br)c(Br)c(Br)c3[nH]2)[C@@H](C)CN1 [Compound 364, 4,5,6,7-tetrabromo-2-((2S,5R)-2,5-dimethylpiperazin-1-yl)-1H-benzo[d]imidazole]",5.57,1.6,0.0103,
"Brc1c(Br)c(Br)c2[nH]c(NC3CCCNCC3)nc2c1Br (stereo not drawn) [Compound 366, N-(azepan-4-yl)-4,5,6,7-tetrabromo-1H-benzo[d]imidazol-2-amine]",5.1,2.15,0.0035,
"CC(C)NC1CCCCC1Nc1nc2c(Br)c(Br)c(Br)c(Br)c2[nH]1 (stereo not drawn) [Compound 369, N1-(4,5,6,7-tetrabromo-1H-benzo[d]imidazol-2-yl)-N2-isopropylcyclohexane-1,2-diamine]",6.2,1.6,0.0411,
"Brc1c(Br)c(Br)c2c(nc(N3CCNCC3)n2Cc2ccccc2)c1Br [Compound 374, 1-benzyl-4,5,6,7-tetrabromo-2-(piperazin-1-yl)-1H-benzo[d]imidazole]",3,1.5,0.107,
"CN(C)C1CCCN(c2nc3c(Br)c(Br)c(Br)c(Br)c3[nH]2)C1 (stereo not drawn) [Compound 378, 1-(4,5,6,7-tetrabromo-1H-benzo[d]imidazol-2-yl)-N,N-dimethylpiperidin-3-amine]",9.04,6.19,0.0391,
"Brc1c(Br)c(Br)c2[nH]c(N3CCC(C4CCNCC4)CC3)nc2c1Br [Compound 386, 4,5,6,7-tetrabromo-2-(4-(piperidin-4-yl)piperidin-1-yl)-1H-benzo[d]imidazole]",6.12,2.47,0.058,
"CCCCCNC1CCCCC1Nc1nc2c(Br)c(Br)c(Br)c(Br)c2[nH]1 (stereo not drawn) [Compound 413, N1-(4,5,6,7-tetrabromo-1H-benzo[d]imidazol-2-yl)-N2-pentylcyclohexane-1,2-diamine]",3.29,1.3,0.119,
"CCn1c(N2CCNCC2)nc2c(Br)c(Br)c(Br)c(Br)c21 [Compound 416, 4,5,6,7-tetrabromo-1-ethyl-2-(piperazin-1-yl)-1H-benzo[d]imidazole]",2.72,1.26,0.00655,remaining activity at 1 µM [7]: 106%; remaining activity at 1 µM [8]: 92%; remaining activity at 1 µM [9]: 79%; remaining activity at 1 µM [10]: 105%; TGI (%) [6]: −102.8%; tumor growth inhibition (in words) [6]: most pronounced tumor growth inhibition
"CCCn1c(N2CCNCC2)nc2c(Br)c(Br)c(Br)c(Br)c21 [Compound 417, 4,5,6,7-tetrabromo-2-(piperazin-1-yl)-1-propyl-1H-benzo[d]imidazole]",3.28,2.54,0.00936,
"Brc1c(Br)c(Br)c2[nH]c(NC3CCNCC3)nc2c1Br [Compound 435, 4,5,6,7-tetrabromo-N-(piperidin-4-yl)-1H-benzo[d]imidazol-2-amine]",5.71,3.49,0.00668,
"CCn1c(N2CCN(CCN3CCNCC3)CC2)nc2c(Br)c(Br)c(Br)c(Br)c21 [Compound 441, 4,5,6,7-tetrabromo-1-ethyl-2-(4-(2-(piperazin-1-yl)ethyl)piperazin-1-yl)-1H-benzo[d]imidazole]",0.6,1.3,0.065,
CCn1c(N2CCN(CCCN3CCOCC3)CC2)nc2c(Br)c(Br)c(Br)c(Br)c21 [Compound 450],0.8,2,0.125,
"Brc1c(Br)c(Br)c2c(Br)n[nH]c2c1Br [Compound K64, 3,4,5,6,7-pentabromo-1H-indazole, reference compound]",,,> 1,IC50 [3]: > 10 µM
"CN(C)c1nc2c(Br)c(Br)c(Br)c(Br)c2n1CC(=O)O [Compound K66, 1-carboxymethyl-2-dimethylamino-4,5,6,7-tetrabromo-benzimidazole, reference compound]",,,> 1,IC50 [3]: > 10 µM
"CN(C)c1nc2c(Br)c(Br)c(Br)c(Br)c2[nH]1 [DMAT, 2-dimethylamino-4,5,6,7-tetrabromo-1H-benzimidazole, reference compound]",,> 10,0.031,solubility at 24 h [5]: < 10 µM; IC50 [3]: 8.18 µM
"Brc1c(Br)c(Br)c2[nH]nnc2c1Br [TBB, 4,5,6,7-tetrabromo-1Hbenzotriazole, reference compound]",,,> 1,IC50 [3]: > 10 µM
"Brc1c(Br)c(Br)c2[nH]cnc2c1Br [TBI, 4,5,6,7-tetrabromo-1H-benzimidazole, reference compound]",,,0.102,IC50 [3]: > 10 µM
